Experimental data as given in patent publication EP0067666A1, “Salts of antimicrobial naphthyridine and quinoline compounds and their production” (priority 1981, dated 1982).
In brackets after ≈: the same amount, converted by molar mass.

Assays:
Proteus retgeri M 1771 = experiment: Antibacterial activity, MIC; assay type: cell-based; settings: based on content of compound A
Strep. faecalis MGH-2 = experiment: Antibacterial activity, MIC; assay type: cell-based; settings: based on content of compound A
Strep. pneumoniae SV-1 = experiment: Antibacterial activity, MIC; assay type: cell-based; settings: based on content of compound A
Klebs. pneumoniae MGH-2 = experiment: Antibacterial activity, MIC; assay type: cell-based; settings: based on content of compound A
Staph. aureus UC-76 = experiment: Antibacterial activity, MIC; assay type: cell-based; settings: based on content of compound A
Pseudo. aeruginosa UI-18 = experiment: Antibacterial activity, MIC; assay type: cell-based; settings: based on content of compound A
Staph. aureus H 228 = experiment: Antibacterial activity, MIC; assay type: cell-based; settings: based on content of compound A
Entero cloacae MA 2646 = experiment: Antibacterial activity, MIC; assay type: cell-based; settings: based on content of compound A
E. coli Vogel = experiment: Antibacterial activity, MIC; assay type: cell-based; settings: based on content of compound A
Strep. pyogenes C-203 = experiment: Antibacterial activity, MIC; assay type: cell-based; settings: based on content of compound A
[1] = Solubility of lyophilized and crystalline solids; assay type: physicochemical; settings: for pH of Solution Cryst.: crystalline solid; for pH of Solution Lyo. / Conc. of CPD A mg/ml Lyo.: lyophilized solid; for Conc. of CPD A mg/ml Lyo.: not necessarily maximum value
[2] = Solubility screening procedure (concentration and pH of filtrate); assay type: physicochemical; settings: for Conc. of CPD A: compound A + equimolar acid; for Conc. of CPD A / Conc. of CPD B: amino acid or base in deionized water, room temperature, filtrate, UV assay; for pH of Solution: pH of the filtrate; for Conc. of CPD B: compound B + equimolar acid
Experimental: (§1) The amount of Compound A or Compound B calculated for selected concentrations was weighed into volumetric flasks. Equimolar quantities of combining acid, amino acid, or base were added either as solutions or in dry form. Deionized water was added to bring the volume to that desired for the preselected concentrations.. All flasks were sonicated for 15 minutes, allowed to stand at room temperature for 30 minutes, then filtered through a fine frit sintered glass funnel. After the pH of the filtrate was taken, suitable dilutions were made into 0.1N HCl for ultraviolet spectrophotometric assay of concentration. Ten fold dilutions of the original filtrates were made into standard I.V. solutions.

[3] = 10x dilution of soluble forms with standard IV solutions (pH, precipitate); assay type: physicochemical; settings: for Solution 1 ppt 24 hr / Solution 3 ppt 24 hr / Solution 2 ppt 24 hr / Solution 4 ppt 24 hr: precipitate at 24 hr; for Concen. of Cpd A: undiluted solution used for the 10x dilutions
Experimental: as §1

[4] = Cpd A salt solution diluted 10x with 0.9% NaCl
[5] = Cpd A salt solution diluted 10x with 5% Dextrose
[6] = Cpd A salt solution diluted 10x with 5% Dextrose + 0.9% NaCl
[7] = Cpd A salt solution diluted 10x with Lactated Ringer's Solution
[8] = concentrated Cpd B solution (154-221 mg/ml) diluted 10x with 5% Dextrose
[9] = concentrated Cpd B solution (154-221 mg/ml) diluted 10x with 5% Dextrose + 0.9% NaCl
[10] = concentrated Cpd B solution (154-221 mg/ml) diluted 10x with Lactated Ringer's Solution
[11] = concentrated Cpd B solution (155-221 mg/ml) diluted 10x with 0.9% NaCl
[12] = concentrated Cpd B solution (155-221 mg/ml) diluted 10x with 0.9% NaCl, precipitate at 4 hr
[13] = concentrated Cpd B solution diluted 10x with 5% Dextrose + 0.9% NaCl
[14] = concentrated Cpd B solution diluted 10x with 5% Dextrose
[15] = concentrated Cpd B solution diluted 10x with Lactated Ringer's Solution
[16] = low-concentration Cpd B solution (26.2-52 mg/ml) diluted 10x with 0.9% NaCl
[17] = separate undiluted concentrated Cpd B solution used for Solutions 2-4 only
[18] = separate undiluted concentrated solution used for Solutions 2-4 only
[19] = undiluted concentrated Cpd B solution used for the Solution 1 dilution
[20] = undiluted concentrated solution (at least 155 mg/ml) used for the Solution 1 dilution (for most salts for all four solutions)
[21] = undiluted low-concentration Cpd B solution (26.2-52 mg/ml)
[22] = undiluted low-concentration solution (26.2-52 mg/ml), diluted with Solution 1 only

CCn1cc(C(=O)O)c(=O)c2cc(F)c(N3CCNCC3)cc21 [A Glutamate]
MIC µg/ml Proteus retgeri M 1771 (Proteus retgeri M 1771): 0.1 µg/mL (≈ 0.313 µM)
MIC µg/ml Strep. faecalis MGH-2 (Strep. faecalis MGH-2): 1.6 µg/mL (≈ 5.01 µM)
MIC µg/ml Strep. pneumoniae SV-1 (Strep. pneumoniae SV-1): 1.6 µg/mL (≈ 5.01 µM)
MIC µg/ml Klebs. pneumoniae MGH-2 (Klebs. pneumoniae MGH-2): 0.1 µg/mL (≈ 0.313 µM)
MIC µg/ml Staph. aureus UC-76 (Staph. aureus UC-76): <0.1 µg/mL
MIC µg/ml Pseudo. aeruginosa UI-18 (Pseudo. aeruginosa UI-18): 0.1 µg/mL (≈ 0.313 µM)
MIC µg/ml Staph. aureus H 228 (Staph. aureus H 228): 1.6 µg/mL (≈ 5.01 µM)
MIC µg/ml Entero cloacae MA 2646 (Entero cloacae MA 2646): <0.1 µg/mL
MIC µg/ml E. coli Vogel (E. coli Vogel): <0.1 µg/mL
MIC µg/ml Strep. pyogenes C-203 (Strep. pyogenes C-203): 0.8 µg/mL (≈ 2.51 µM)

CCn1cc(C(=O)O)c(=O)c2cc(F)c(N3CCNCC3)cc21 [A L-Glutamic]
pH of Solution Cryst. ([1]; CPD A salt): 5.5
pH of Solution Lyo. ([1]; CPD A salt): 5.2
Conc. of CPD A mg/ml Lyo. [1]: 254 mg/mL
Conc. of CPD A [2]: 174000 µg/mL
pH of Solution ([2]; CPD A solutions): 5.08
Solution 1 pH dil [3, 4]: 5.18
Solution 1 ppt 24 hr [3, 4]: no
Solution 2 pH dil [3, 5]: 5.05
Solution 3 pH dil [3, 6]: 5.05
Solution 3 ppt 24 hr [3, 6]: no
Solution 2 ppt 24 hr [3, 5]: no
Solution 4 pH dil [3, 7]: 5.15
Solution 4 ppt 24 hr [3, 7]: no
pH of Solut. ([3]; undiluted Cpd A solution): 5.08
Concen. of Cpd A [3]: 174000 µg/mL

CCn1cc(C(=O)O)c(=O)c2cc(F)c(N3CCNCC3)nc21 [B Isethionic]
pH of Solution Cryst. ([1]; CPD B salt): 2.84
pH of Solution Lyo. ([1]; CPD B salt): 1.4
Conc. of CPD B [2]: 220000 µg/mL
pH of Solution ([2]; CPD B solutions): 1.01
Solution 2 pH dil [3, 8]: 2.35
Solution 3 pH dil [3, 9]: 2.14
Solution 4 pH dil [3, 10]: 3.95
Solution 1 pH dil [3, 11]: 2.08
Solution 1 ppt 4 hr [3, 12]: no
Solution 1 ppt 24 hr [3, 11]: yes
Solution 3 ppt 24 hr [3, 13]: yes
Solution 2 ppt 24 hr [3, 14]: no
Solution 4 ppt 24 hr [3, 15]: slight
Solution 1 pH dil [3, 16]: 3.05
Solution 1 ppt 24 hr [3, 16]: no
pH of Solut. [3, 17]: 1.40
Concen. of Cpd B [3, 18]: 196000 µg/mL
pH of Solut. [3, 19]: 1.01
Concen. of Cpd B [3, 20]: 220000 µg/mL
pH of Solut. [3, 21]: 2.16
Concen. of Cpd B [3, 22]: 48800 µg/mL

CCn1cc(C(=O)O)c(=O)c2cc(F)c(N3CCNCC3)cc21 [A Aspartate]
MIC µg/ml Proteus retgeri M 1771 (Proteus retgeri M 1771): <0.1 µg/mL
MIC µg/ml Strep. faecalis MGH-2 (Strep. faecalis MGH-2): 1.6 µg/mL (≈ 5.01 µM)
MIC µg/ml Strep. pneumoniae SV-1 (Strep. pneumoniae SV-1): 1.6 µg/mL (≈ 5.01 µM)
MIC µg/ml Klebs. pneumoniae MGH-2 (Klebs. pneumoniae MGH-2): 0.2 µg/mL (≈ 0.626 µM)
MIC µg/ml Staph. aureus UC-76 (Staph. aureus UC-76): <0.1 µg/mL
MIC µg/ml Pseudo. aeruginosa UI-18 (Pseudo. aeruginosa UI-18): <0.1 µg/mL
MIC µg/ml Staph. aureus H 228 (Staph. aureus H 228): 0.8 µg/mL (≈ 2.51 µM)
MIC µg/ml Entero cloacae MA 2646 (Entero cloacae MA 2646): 0.1 µg/mL (≈ 0.313 µM)
MIC µg/ml E. coli Vogel (E. coli Vogel): <0.1 µg/mL
MIC µg/ml Strep. pyogenes C-203 (Strep. pyogenes C-203): 0.8 µg/mL (≈ 2.51 µM)

CCn1cc(C(=O)O)c(=O)c2cc(F)c(N3CCNCC3)nc21 [B L-Aspartic]
pH of Solution Cryst. ([1]; CPD B salt): 4.80
pH of Solution Lyo. ([1]; CPD B salt): 4.65
Conc. of CPD B [2]: 165000 µg/mL
pH of Solution ([2]; CPD B solutions): 4.64
Solution 2 pH dil [3, 8]: 4.83
Solution 3 pH dil [3, 9]: 4.71
Solution 4 pH dil [3, 10]: 4.94
Solution 1 pH dil [3, 11]: 4.82
Solution 1 ppt 4 hr [3, 12]: no
Solution 1 ppt 24 hr [3, 11]: yes
Solution 3 ppt 24 hr [3, 13]: yes
Solution 2 ppt 24 hr [3, 14]: no
Solution 4 ppt 24 hr [3, 15]: no
Solution 1 pH dil [3, 16]: 5.54
Solution 1 ppt 24 hr [3, 16]: no
pH of Solut. [3, 17]: 4.60
Concen. of Cpd B [3, 18]: 190000 µg/mL
pH of Solut. [3, 19]: 4.64
Concen. of Cpd B [3, 20]: 165000 µg/mL
pH of Solut. [3, 21]: 4.48
Concen. of Cpd B [3, 22]: 49800 µg/mL

CCn1cc(C(=O)O)c(=O)c2cc(F)c(N3CCNCC3)nc21 [B L-Glutamic]
pH of Solution Cryst. ([1]; CPD B salt): 4.84
pH of Solution Lyo. ([1]; CPD B salt): 4.8
Conc. of CPD B [2]: 160000 µg/mL
pH of Solution ([2]; CPD B solutions): 4.98
Solution 2 pH dil [3, 8]: 5.06
Solution 3 pH dil [3, 9]: 4.95
Solution 4 pH dil [3, 10]: 5.09
Solution 1 pH dil [3, 11]: 5.10
Solution 1 ppt 4 hr [3, 12]: no
Solution 1 ppt 24 hr [3, 11]: yes
Solution 3 ppt 24 hr [3, 13]: slight
Solution 2 ppt 4 hr ([3]; concentrated Cpd B solution diluted 10x with 5% Dextrose, precipitate at 4 hr): slight
Solution 2 ppt 24 hr [3, 14]: slight
Solution 4 ppt 24 hr [3, 15]: slight
Solution 1 pH dil [3, 16]: 4.99
Solution 1 ppt 24 hr [3, 16]: no
pH of Solut. [3, 17]: 5.20
Concen. of Cpd B [3, 18]: 154000 µg/mL
pH of Solut. [3, 19]: 4.98
Concen. of Cpd B [3, 20]: 160000 µg/mL
pH of Solut. [3, 21]: 4.95
Concen. of Cpd B [3, 22]: 48200 µg/mL

CCn1cc(C(=O)O)c(=O)c2cc(F)c(N3CCNCC3)cc21 [A Galacturo-nate]
MIC µg/ml Proteus retgeri M 1771 (Proteus retgeri M 1771): <0.1 µg/mL
MIC µg/ml Strep. faecalis MGH-2 (Strep. faecalis MGH-2): 1.6 µg/mL (≈ 5.01 µM)
MIC µg/ml Strep. pneumoniae SV-1 (Strep. pneumoniae SV-1): 1.6 µg/mL (≈ 5.01 µM)
MIC µg/ml Klebs. pneumoniae MGH-2 (Klebs. pneumoniae MGH-2): 0.1 µg/mL (≈ 0.313 µM)
MIC µg/ml Staph. aureus UC-76 (Staph. aureus UC-76): <0.1 µg/mL
MIC µg/ml Pseudo. aeruginosa UI-18 (Pseudo. aeruginosa UI-18): 0.1 µg/mL (≈ 0.313 µM)
MIC µg/ml Staph. aureus H 228 (Staph. aureus H 228): 0.8 µg/mL (≈ 2.51 µM)
MIC µg/ml Entero cloacae MA 2646 (Entero cloacae MA 2646): 0.1 µg/mL (≈ 0.313 µM)
MIC µg/ml E. coli Vogel (E. coli Vogel): <0.1 µg/mL
MIC µg/ml Strep. pyogenes C-203 (Strep. pyogenes C-203): 0.8 µg/mL (≈ 2.51 µM)

CCn1cc(C(=O)O)c(=O)c2cc(F)c(N3CCNCC3)cc21 [A Lactic]
pH of Solution Cryst. ([1]; CPD A salt): 5.15
pH of Solution Lyo. ([1]; CPD A salt): 4.6
Conc. of CPD A mg/ml Lyo. [1]: 256 mg/mL
Conc. of CPD A [2]: 198000 µg/mL
pH of Solution ([2]; CPD A solutions): 4.05
Solution 1 pH dil [3, 4]: 4.3
Solution 1 ppt 24 hr [3, 4]: no
Solution 2 pH dil [3, 5]: 4.8
Solution 3 pH dil [3, 6]: 4.2
Solution 3 ppt 24 hr [3, 6]: no
Solution 2 ppt 24 hr [3, 5]: no
Solution 4 pH dil [3, 7]: 4.5
Solution 4 ppt 24 hr [3, 7]: no
pH of Solut. ([3]; undiluted Cpd A solution): 4.17
Concen. of Cpd A [3]: 193000 µg/mL
